Active and inactive are the calls of the source. No cut-off for these calls is given here. Where only a bound is given, the exact number is not on record here.

What is called GI50 is the concentration at which growth is held to half of that of the control.

For experiment [1], the system named is CAL-51. Nature of the experiment: Antiproliferative activity against human CAL-51 cells incubated for 72 hrs by SRB proliferation assay. The experiment is classed as functional. Background: Sulforhodamine B stains cellular protein and so reports cell mass.
The test system of experiment [2] is HCT-116. Description: Antiproliferative activity against human HCT-116 cells incubated for 72 hrs by SRB proliferation assay. In kind it is functional.
For experiment [3], the system named is CAL-51. Nature of the experiment: Induction of mitotic arrest in human CAL-51 cells assessed as upregulation of histone H3 phosphorylation at S10 residue at 25 uM incubated for 8 hrs by dot blot assay. The experiment is classed as functional, cell-based.
Experiment [4] concerns KB 3-1. Nature of the experiment: Induction of apoptosis in human KB-3-1 cells assessed as increase in PARP cleavage at 100 uM incubated for 24 hrs by Western blot analysis. In kind it is functional, cell-based.
Experiment [5] is described as follows: Resistance index, ratio of GI50 for multidrug resistant human KB-V1 cells to GI50 for human KB-3-1 cells. The experiment is classed as functional.
The subject of experiment [6] is KB-V1. Description: Cytotoxicity against multidrug resistant human KB-V1 cells assessed as inhibition of cell proliferation. In kind it is functional.
Experiment [7] concerns KB 3-1. Nature of the experiment: Cytotoxicity against human KB-3-1 cells assessed as inhibition of cell proliferation. In kind it is functional.
The target in experiment [8] is T1, Tubulin (Homo sapiens) (UniProt P68371+Q9H4B7+P0DPH7+P68366+Q13509+Q71U36+P04350+Q3ZCM7+P07437+P68363+Q9BQE3+Q6PEY2+Q13885+Q9BVA1+Q9BUF5). Description: Inhibition of microtubule re-polymerization in human A549 cells at 5 times GI50 preincubated for 30 min on ice followed by incubation at 37 degreeC for 10 mins by immunofluorescence analysis. In kind it is cell-based. The conditions noted are these: time 40.0 min.

Experiment [9] addresses T1, Tubulin (Homo sapiens). Description: Inhibition of microtubule polymerization in human HCT-116 cells assessed as increase in soluble tubulin level at 1.25 to 5 times GI50 incubated for 5 mins by immunoblot analysis. The experiment is classed as cell-based. On the technique in general: In western blotting, separated proteins are transferred to a membrane and probed.
Experiment [10] concerns the target T1, Tubulin (Homo sapiens). Description: Inhibition of microtubule polymerization in human HCT-116 cells assessed as decrease in polymeric tubulin level at 1.25 to 5 times GI50 incubated for 5 mins by immunoblot analysis. The experiment is classed as cell-based.
The subject of experiment [11] is KB-V1. Description: Inhibition of P-gp in human KB-V1 cells at 5 uM by calcein AM efflux assay. In kind it is functional, cell-based.
Experiment [12] relates to BT-549. Description: Antitumor activity against human BT-549 cells by MTS assay. In kind it is functional. (In general: Tetrazolium dyes change colour on reduction, which living cells bring about.)
Experiment [13] has as its system KB 3-1. Nature of the experiment: Induction of apoptosis in human KB-3-1 cells assessed as increase in PARP cleavage at 1.25 to 5 uM incubated for 24 hrs by Western blot analysis. In kind it is functional, cell-based. The conditions noted are these: dose 1.25-5 µM.
Experiment [14] deals with A549. Nature of the experiment: Induction of mitotic cell arrest in human A549 cells assessed as chromosome misalignment at 5 times GI50 incubated for 24 hrs by immunofluorescence based confocal microscopic analysis. In kind it is functional.
Experiment [15] deals with HCT-116. Nature of the experiment: Induction of mitotic arrest in human HCT-116 cells assessed as upregulation of histone H3 phosphorylation at S10 residue at 1.25 to 5 times GI50 measured for 8 to 16 hrs by Western blot analysis. In kind it is functional, cell-based. To be noted: time 8-16 hrs.
Experiment [16] has as its target T1, Tubulin (Homo sapiens). Nature of the experiment: Inhibition of microtubule polymerization (unknown origin) at 10 uM incubated for 1 hr by turbidimetric assay relative to control. The experiment is classed as protein-complex assay.
Experiment [17] relates to HCT-116. Nature of the experiment: Induction of apoptosis in human HCT-116 cells assessed as increase in p53 expression at 1.25 to 5 times GI50 incubated for 24 to 36 hrs by Western blot analysis. The experiment is classed as functional, cell-based. The conditions noted are these: time 24-36 hrs.
Experiment [18] relates to KB 3-1. Description: Antitumor activity against human KB-3-1 cells by MTS assay. The experiment is classed as functional.
Experiment [19] relates to MOLM-13. Nature of the experiment: Antitumor activity against human MOLM-13 cells by MTS assay. The experiment is classed as functional.
Experiment [20] relates to MV4-11. Description: Antitumor activity against human MV4-11 cells by MTS assay. The experiment is classed as functional.
The nature of experiment [21]: Anticancer activity against human colon cancer organoids assessed as inhibition of cell viability measured after 4 days by Cell Titer Glo assay. The experiment is classed as functional. To be noted: Colon cancer organoid, 96 h, time 4 day.
Experiment [22] has as its system MCF7. Description: Antitumor activity against human MCF7 cells by MTS assay. In kind it is functional.
Experiment [23] deals with A549. Nature of the experiment: Induction of mitotic cell arrest in human A549 cells assessed as defective spindles at 5 times GI50 incubated for 24 hrs by immunofluorescence based confocal microscopic analysis. The experiment is classed as functional.
In experiment [24] the test system is HCT-116. Nature of the experiment: Induction of cell cycle arrest in human HCT-116 cells accumulation of cells at G2/M phase incubated for 12 hrs by PI staining based flow cytometry analysis. In kind it is functional.
The test system of experiment [25] is A549. Description: Induction of mitotic arrest in human A549 cells assessed as increase in mitotic index by measuring histone H3 phosphorylation at S10 residue at 5 times GI50 incubated for 24 hrs by immunofluorescence analysis. In kind it is functional, cell-based.
Experiment [26] relates to HCT-116. Description: Induction of apoptosis in human HCT-116 cells assessed as increase in apoptotic cell death at 2.5 to 5 times GI50 incubated for 24 hrs by Annexin V/PI staining based flow cytometric analysis. The experiment is classed as functional.
The test system of experiment [27] is K562. Nature of the experiment: Antitumor activity against human K562 cells by MTS assay. The experiment is classed as functional.
The subject of experiment [28] is KB-V1. Description: Induction of apoptosis in multidrug resistant human KB-V1 cells assessed as increase in PARP cleavage at 1.25 to 5 uM incubated for 24 hrs by Western blot analysis. To be noted: dose 1.25-5 µM. The experiment is classed as functional, cell-based.
Experiment [29] in a line: Anticancer activity against mouse colon cancer organoids expressing Apc fl/fl-Kras G12D-Tp53 KO-Smad4 KO assessed as inhibition of cell viability measured after 4 days by Cell Titer Glo assay. To be noted: Colon cancer organoid, 96 h, time 4 day. The experiment is classed as functional.
Experiment [30] deals with HCT-116. Nature of the experiment: Induction of apoptosis in human HCT-116 cells assessed as increase in PARP cleavage at 1.25 to 5 times GI50 incubated for 24 to 36 hrs by Western blot analysis. In kind it is functional, cell-based. To be noted: time 24-36 hrs.
Experiment [31] deals with HCC1954. Nature of the experiment: Antitumor activity against human HCC1954 cells by MTS assay. In kind it is functional.

For the molecule `O=C1CCCC2=C1C(c1ccc(F)c(F)c1)c1cc3c(cc1N2)OCCO3` (stereo unspecified), the GI50 in [1] was 7.94 µM; in [2] it was 5.44 µM.

Regarding `O=C1CCCC2=C1C(c1cccc(F)c1F)c1cc3c(cc1N2)OCCO3` (stereo unspecified), the GI50 in [1] was 4.63 µM; in [2] it was 4.64 µM.

In the case of `COc1cccc(C2C3=C(CCCC3=O)Nc3cc4c(cc32)OCCO4)c1` (stereo unspecified), the result in [3] was Active. Also, the GI50 in experiment [1] amounted to 12.7 µM; in [2], 11.9 µM.

Regarding `CC(=O)O[C@H]1C(=O)[C@@]2(C)[C@H]([C@H](OC(=O)c3ccccc3)[C@]3(O)C[C@H](OC(=O)[C@H](O)[C@@H](NC(=O)c4ccccc4)c4ccccc4)C(C)=C1C3(C)C)[C@]1(OC(C)=O)CO[C@@H]1C[C@@H]2O` [PACLITAXEL], the result in experiment [4] was Active. In addition, in experiment [5], the RatioGI50 is reported as 193.51. The results for the GI50 in experiment [6] and in experiment [7] were 0.432 µM and 0.00223 µM, respectively.

On to `COc1cc([C@@H]2c3cc4c(cc3[C@H](O)[C@H]3COC(=O)[C@H]23)OCO4)cc(OC)c1OC` [PODOFILOX], for which the GI50 in experiment [1] and in experiment [2] was 0.013 µM throughout.

For `O=C1CCCC2=C1C(c1ccco1)c1cc3c(cc1N2)OCCO3` (stereo unspecified), the outcome in experiment [3] was Active. Besides, the GI50 in [1] was 11.8 µM; in experiment [2] it was 9.85 µM.

For the molecule `CN1C2=C(C(=O)CCC2)C(c2ccc(Br)cc2)c2cc3c(cc21)OCCO3` (stereo unspecified), the GI50 in [1] worked out at 23.7 µM; in [2], 17.3 µM.

With `O=C1CCCC2=C1C(c1cccc(Cl)c1)c1cc3c(cc1N2)OCCO3` (stereo unspecified), the result in experiment [3] was Active. Also, the GI50 in experiment [1] is 12.6 µM; in experiment [2], 18.4 µM.

`COC(=O)Nc1nc2cc(C(=O)c3cccs3)ccc2[nH]1` [NOCODAZOLE]: the figures for the concentration for 50% growth inhibition (GI50) in experiment [1] and in experiment [2] were 0.209 µM and 0.24 µM, respectively. Also, the inhibition result in experiment [8], in [9] and in [10] was “Active” each time.

In the case of `COc1cc(C2C3=C(CCCC3=O)Nc3cc4c(cc32)OCCO4)cc(OC)c1OC` (stereo unspecified), in [3], the result was Active. Also, the GI50 stood at 4.15 µM in experiment [1] and 3.33 µM in [2].

In the case of `CC[C@]1(O)C[C@H]2CN(CCc3c([nH]c4ccccc34)[C@@](C(=O)OC)(c3cc4c(cc3OC)N(C=O)[C@H]3[C@@](O)(C(=O)OC)[C@H](OC(C)=O)[C@]5(CC)C=CCN6CC[C@]43[C@@H]65)C2)C1` [VINCRISTINE], the figures for the GI50 in experiment [1] and in experiment [2] were 0.089 µM and 0.006 µM, respectively.

For `O=C1CCCC2=C1C(c1cccc([N+](=O)[O-])c1)c1cc3c(cc1N2)OCCO3` (stereo unspecified), the inhibition entry in experiment [11] is “inactive”. Also, the result in experiment [3], in experiment [13], in experiment [14], in experiment [15], in [17] and in experiment [23] was Active. The outcome in [25], in [26], in experiment [28] and in experiment [30] was Active. Besides, the GI50 came out at 3.3 µM in [1]; 7.05 µM in experiment [12]; 1.29 µM in experiment [18]; 4.23 µM in experiment [19]; 9.45 µM in [20]; 11.6 µM in experiment [21]. Further, the GI50 in [22] came to 5.02 µM; in [2], 2.01 µM; in [6], 1.74 µM; in experiment [27], 17.7 µM; in experiment [29], 7.16 µM; in experiment [7], 1.29 µM. For the same molecule, the GI50 in experiment [31] was determined as 21.2 µM. Also, the inhibition entry in experiment [8], in experiment [9], in experiment [16] and in experiment [10] was “Active” in each case. Besides, in experiment [5], the RatioGI50 came out at 1.35. Besides, the Activity result in experiment [24] was “Dose-Dependent Effect”.

On to `O=C1CCCC2=C1C(c1ccccc1)c1cc3c(cc1N2)OCCO3` (stereo unspecified), for which the result in [3] was Active. Besides, the GI50 in experiment [1] is 9.53 µM; in experiment [2], greater than 100 µM.

With `COc1ccc(OC)c(C2C3=C(CCCC3=O)Nc3cc4c(cc32)OCCO4)c1` (stereo unspecified), the GI50 was found to be 20.9 µM in [1] and 12.2 µM in [2].

The values above are taken from ChEMBL document CHEMBL5370630, “Design, Synthesis, and Biological Evaluation of SSE1806, a Microtubule Destabilizer That Overcomes Multidrug Resistance” (2023).
